Assay results taken from patent publication US20240368151A1, “NOVEL ERGOLINES AND METHODS OF TREATING MOOD DISORDERS” (priority 2021, published 2024).

Tests used:
5-HT2A receptor [1] = biological target: T1, 5-HT2A receptor (Homo sapiens (Human), UniProt P28223); format: cell-based; conditions: Ca^2+ flux, HEK293
Method: (§1) Functional Assays at 5-HT2A, 5-HT2B, and 5-HT1A. Agonist activity at 5-HT2A, 5-HT2B, and 5-HT1A receptors was determined using a FLIPR Ca^2+ flux assay at WuXi AppTec (Hong Kong) Limited according to their standard protocols. Briefly, stably transfected cells expressing the receptor of interest (HEK293 for 5-HT2A and 5-HT2B; CHO cells for 5-HT1A) were grown and plated in a 384 well plate and incubated at 37° C. and 5% CO2 overnight. A solution of 250 mM probenecid in 1 mL FLIPR assay buffer was prepared fresh. This was combined with a fluorescent dye (Fluo-4 Direct™) to make a final assay concentration of 2.5 mM. […] The fluorescent dye was then added to the assay plate along with assay buffer to a final volume of 40 μL. The cell plate was incubated for 50 min at 37° C. and 5% CO2 and placed into the FLIPR Tetra along with the compound plate. 10p L of references and compounds were then transferred from the compound plate into the cell plate and the fluorescent signal was read.

[2] = Metabolic stability in mouse liver microsomes (MLM); format: in vitro ADME; conditions: mouse, pooled mouse liver microsomes, pH 7.4, MLM (CD-1), NADPH
Excerpt: MLM Stability Pooled MLM from CD-1 mice (BIOIVT M00501) were used.

[3] = Metabolic stability in rat liver microsomes (RLM); format: in vitro ADME; conditions: both sexes, rat, pooled rat liver microsomes, pH 7.4, NADPH
5-HT2B receptor = 5-HT2B receptor (Homo sapiens (Human), UniProt P41595); test: FLIPR Ca^2+ flux agonist assay at 5-HT2B; format: cell-based; conditions: HEK293
Method: as §1

5-HT1A receptor = 5-HT1A receptor (Homo sapiens (Human), UniProt P08908); test: FLIPR Ca^2+ flux agonist assay at 5-HT1A; format: cell-based; conditions: CHO cells
Method: as §1

[4] = Metabolic stability in human liver microsomes (HLM); format: in vitro ADME; conditions: both sexes, human, pooled human liver microsomes, pH 7.4, NADPH
Excerpt: HLM Stability. Pooled HLM from adult male and female donors (Corning 452117) were used.

5-HT1B receptor = 5-HT1B receptor (Homo sapiens (Human), UniProt P28222); test: cAMP accumulation agonist assay at 5-HT1B; format: cell-based
Method: Functional Assay at 5-HT1B. Agonist activity at 5-HT1B was determined using a cAMP accumulation protocol at WuXi AppTec (Hong Kong) Limited according to their standard protocols. Briefly, stably transfected cells were plated in an OptiPlate-384 well plate, incubated at RT for 60 mins, and cAMP standard solution (800 nM, 10 μL) was added to the blank well. Then, 10 μL detection reagent was added to each well, the plate incubated for 60 mins at RT, and the plate read using EnVision.

C57BL/6 mice = test: Mouse head twitch response (HTR) assay; format: in vivo; conditions: mouse HTR, SC; for # HTR at Most Efficacious Dose / Emax (95% CI): 20 min observation; for Emax (95% CI): curve fit
Method: Agonists of the 5-HT2A receptor are well known to induce this effect in rodents and the potency of this HTR is correlated with hallucinogenic potency in humans.
Animals. Adult male C57BL/6 mice, aged 6-8 weeks (body weight 20-25 g) were used in this experiment. Animals were housed under controlled temperatures and 12-hour light/dark cycles (lights on between 07:00-19:00 h), with ad libitum food and water. This study was carried out in strict accordance with the requirements of the Committee for the Purpose of Control and Supervision of Experiments on Animals (CPCSEA), India. All efforts were made to minimize suffering.
Drugs and Drug Administration. Compound 1 was synthesized as described above. It was administered subcutaneously (SC) dissolved in saline vehicle at a volume of 10 mL/kg. Five doses were tested, with n=6 animals/group. Doses were calculated on the basis of the freebase.
Procedure. Mice were administered one dose of the drug and immediately placed into a small open field for behavioral observation. Animals were observed continuously for 20 mins and the number of head twitches (HTs) were counted by an observer blind to the treatment condition.
Statistical Analysis. The data points shown are the mean±standard error of the mean (SEM). Analysis was performed using GraphPad Prism 6. Curves were fit using a non-linear gaussian distribution to calculate ED50 and Emax values.
Additional disclosed compounds were tested in the mouse head twitch response (HTR) assay according to the procedure described in Example 34. […] Lastly, compounds with much larger benzyl and phenethyl substituents on the amine nitrogen (e.g., 10 and 11) were low efficacy in this assay, consistent with their lower maximal efficacy in the arrestin functional assay (see Example 32).

5-HT2A receptor [5] = biological target: T1, 5-HT2A receptor; format: cell-based; conditions: beta-arrestin recruitment
Method: The degree of arrestin bias varied substantially across the other compounds tested as well.
Arrestin Functional Assay at 5-HT2A. Recruitment of beta-arrestin was determined using a PathHunter assay at Eurofins DiscoverX (Fremont, CA) according to their standard protocols. PathHunter GPCR beta-arrestin assays take advantage of DiscoverX's proprietary Enzyme Fragment Complementation technology. The GPCR is fused in frame with a small enzyme donor fragment ProLink™ (PK) and co-expressed in cells stably expressing a fusion protein of beta-arrestin and the larger, N-terminal deletion mutant of beta-galactosidase. Activation of the GPCR (5-HT2A receptor in this case) stimulates binding of beta-arrestin to the PK-tagged GPCR and forces complementation of the two enzyme fragments, resulting in the formation of an active beta-galactosidase enzyme. This interaction leads to an increase in enzyme activity that can be measured using chemiluminescent PathHunter Detection Reagents. Briefly, PathHunter cells expressing 5-HT2A receptors were seeded in a volume of 20 μL into 384-well plates and incubated at 37° C. for the appropriate time prior to testing. […] Plates were then imaged on a microplate reader and the agonist activity was calculated using the following formula: % Activity=100%×(mean RLU of test sample−mean RLU of vehicle control)/(mean MAX control ligand−mean RLU of vehicle control), where RLU=relative light units.

human 5-HT2C receptor = human 5-HT2C receptor (Homo sapiens (Human), UniProt P28335); format: cell-based; conditions: Ca^2+ flux
human 5-HT2C receptor, sequence (P28335 33-458 limits assumed): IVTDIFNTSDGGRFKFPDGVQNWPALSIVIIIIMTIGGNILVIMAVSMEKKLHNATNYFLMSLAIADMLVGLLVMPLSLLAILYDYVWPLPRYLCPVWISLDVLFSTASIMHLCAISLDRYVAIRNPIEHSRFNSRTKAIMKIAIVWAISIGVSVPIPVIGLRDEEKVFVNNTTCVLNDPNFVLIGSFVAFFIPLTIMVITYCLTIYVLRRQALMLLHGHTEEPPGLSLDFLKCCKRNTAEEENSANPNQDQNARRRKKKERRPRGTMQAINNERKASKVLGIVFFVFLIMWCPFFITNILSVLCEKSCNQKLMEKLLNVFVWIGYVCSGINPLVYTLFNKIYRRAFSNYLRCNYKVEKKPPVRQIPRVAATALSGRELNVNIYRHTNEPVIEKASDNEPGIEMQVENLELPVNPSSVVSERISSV

5-HT1B receptor, sequence (P28222 whole entry, looked up): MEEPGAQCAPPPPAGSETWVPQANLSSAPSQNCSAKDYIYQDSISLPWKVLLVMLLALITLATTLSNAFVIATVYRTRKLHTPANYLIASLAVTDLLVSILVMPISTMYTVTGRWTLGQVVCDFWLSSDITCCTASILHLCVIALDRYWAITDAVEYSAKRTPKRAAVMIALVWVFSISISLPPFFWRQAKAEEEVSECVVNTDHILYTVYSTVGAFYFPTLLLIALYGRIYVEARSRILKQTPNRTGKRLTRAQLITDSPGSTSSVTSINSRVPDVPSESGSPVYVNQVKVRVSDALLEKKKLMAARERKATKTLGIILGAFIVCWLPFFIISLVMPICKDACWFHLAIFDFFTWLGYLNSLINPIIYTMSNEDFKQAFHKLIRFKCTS
5-HT2B receptor, sequence (P41595 whole entry, looked up): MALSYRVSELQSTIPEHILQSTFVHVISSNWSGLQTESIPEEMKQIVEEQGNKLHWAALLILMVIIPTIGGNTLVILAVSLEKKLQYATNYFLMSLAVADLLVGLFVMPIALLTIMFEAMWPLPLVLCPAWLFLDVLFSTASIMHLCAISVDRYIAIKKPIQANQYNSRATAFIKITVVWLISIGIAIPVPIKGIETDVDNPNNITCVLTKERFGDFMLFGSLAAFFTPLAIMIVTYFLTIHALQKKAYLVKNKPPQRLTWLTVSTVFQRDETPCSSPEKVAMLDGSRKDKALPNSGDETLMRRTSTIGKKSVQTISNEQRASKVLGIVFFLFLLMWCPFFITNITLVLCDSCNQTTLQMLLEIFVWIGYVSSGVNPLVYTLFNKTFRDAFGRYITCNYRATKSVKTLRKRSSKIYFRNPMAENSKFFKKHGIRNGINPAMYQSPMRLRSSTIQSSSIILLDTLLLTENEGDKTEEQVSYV

| Compound | 5-HT2A % Act @ Max Dose (5-HT2A receptor [1]) [%] | half-life at 1 μM [2] [min] | half-life at 1 μM [3] [min] | 5-HT2B % Act @ Max Dose (5-HT2B receptor) [%] | 5-HT1A % Act @ Max Dose (5-HT1A receptor) [%] | half-life at 1 μM [4] [min] | 5-HT1B % Act @ Max Dose (5-HT1B receptor) [%] | Most Efficacious Dose (C57BL/6 mice) | # HTR at Most Efficacious Dose (C57BL/6 mice) | Emax (95% CI) (C57BL/6 mice) | 5-HT2A Arrestin % Act @ Max Dose (5-HT2A receptor [5]) [%] | agonist type in the 5-HT2A arrestin recruitment assay, in words (5-HT2A receptor [5]) | 5-HT2C % Act @ Max Dose (human 5-HT2C receptor) [%] |
| --- | --- | --- | --- | --- | --- | --- | --- | --- | --- | --- | --- | --- | --- |
| CCN(CC)C(=O)[C@@H]1C=C2c3cccc4[nH]cc(c34)C[C@H]2N(Cc2ccc(OC)cc2)C1 [Compound 19, (6aR,9R)-N,N-diethyl-7-(4-methoxybenzyl)-4,6,6a,7,8,9-hexahydroindolo[4,3-fg]quinoline-9-carboxamide] | 70.54 | 7.2 | 10 | 2.44 | −0.65 | 16.8 | 71.08 |  |  |  |  |  |  |
| CCN(CC)C(=O)[C@@H]1C=C2c3cccc4[nH]cc(c34)C[C@H]2N(CCc2ccc(OC)cc2)C1 [Compound 21, (6aR,9R)-N,N-diethyl-7-(4-methoxyphenethyl)-4,6,6a,7,8,9-hexahydroindolo[4,3-fg]quinoline-9-carboxamide] | 51.23 | 1.9 | 4.3 | 1.73 | 8.2 | 3.8 | 79.13 |  |  |  |  |  |  |
| CCN(CC)C(=O)[C@@H]1C=C2c3cccc4[nH]cc(c34)C[C@H]2N(Cc2cccc(OC)c2)C1 [Compound 18, (6aR,9R)-N,N-diethyl-7-(3-methoxybenzyl)-4,6,6a,7,8,9-hexahydroindolo[4,3-fg]quinoline-9-carboxamide] | 61.09 | 2.6 | 5.3 | 4.69 | 28.93 | 13.6 | 83.31 |  |  |  |  |  |  |
| CCN(CC)C(=O)[C@@H]1C=C2c3cccc4[nH]cc(c34)C[C@H]2N(Cc2ccccc2O)C1 [Compound 16, (6aR,9R)-N,N-diethyl-7-(2-hydroxybenzyl)-4,6,6a,7,8,9-hexahydroindolo[4,3-fg]quinoline-9-carboxamide] | 62.05 | 1.3 | 2.2 | 26.497 | 22.29 | 4.9 | 90.1 |  |  |  |  |  |  |
| CCC(CC)NC(=O)[C@@H]1C=C2c3cccc4[nH]cc(c34)C[C@H]2N(C)C1 [Int14, (6aR,9R)-7-methyl-N-(pentan-3-yl)-4,6,6a,7,8,9-hexahydroindolo[4,3-fg]quinoline-9-carboxamide] | 93.33 | 6.07 | 38 | 9.84 | 102.46 | 17.6 |  | (1 mg/kg) | 10.5 | 21.63 | 44.377 | partial agonists | 99.149 |
| CCN(CC)C(=O)[C@@H]1C=C2c3cccc4[nH]cc(c34)C[C@H]2N(CCc2cccc(OC)c2)C1 [Compound 20, (6aR,9R)-N,N-diethyl-7-(3-methoxyphenethyl)-4,6,6a,7,8,9-hexahydroindolo[4,3-fg]quinoline-9-carboxamide] | 77.19 | 0.9 | 1.2 | 3.60 | 3.85 | 2.1 | 34.59 |  |  |  |  |  |  |
| CCN(CC)C(=O)[C@@H]1C=C2c3cccc4[nH]cc(c34)C[C@H]2N(Cc2ccccn2)C1 [Compound 22, (6aR,9R)-N,N-diethyl-7-(pyridin-2-ylmethyl)-4,6,6a,7,8,9-hexahydroindolo[4,3-fg]quinoline-9-carboxamide] | 64.47 | 9.2 | 13.2 | 7.74 | 57.33 | 23.8 | 89.15 |  |  |  |  |  |  |
| C=CCN1C[C@H](C(=O)N[C@H](C)CC)C=C2c3cccc4[nH]cc(c34)C[C@H]21 [Compound 8, (6aR,9R)-7-allyl-N-((R)-sec-butyl)-4,6,6a,7,8,9-hexahydroindolo[4,3-fg]quinoline-9-carboxamide] | 99.25 | 3.7 | 7.7 | 91.56 | 116.41 | 7.9 |  | (1 mg/kg) | 15.75 | 12.03 | 112.42 | full agonists | 108.26 |
| CCN(CC)C(=O)[C@@H]1C=C2c3cccc4[nH]cc(c34)C[C@H]2N(CCc2ccccn2)C1 [Compound 23, (6aR,9R)-N,N-diethyl-7-(2-(pyridin-2-yl)ethyl)-4,6,6a,7,8,9-hexahydroindolo[4,3-fg]quinoline-9-carboxamide] | 85.397 | 1.8 | 4.2 | 12.50 | 46.19 | 7.2 | 83.68 |  |  |  |  |  |  |
| CC[C@@H](C)NC(=O)[C@@H]1C=C2c3cccc4[nH]cc(c34)C[C@H]2N(C)C1 [Int8, (6aR,9R)-N-((R)-sec-butyl)-7-methyl-4,6,6a,7,8,9-hexahydroindolo[4,3-fg]quinoline-9-carboxamide] | 96.25 | 39.9 | 99.5 | 17.7 | 90.25 | 64.9 |  | (1 mg/kg) | 13.5 | 14.34 | 46.06 | partial agonists | 98.245 |
